Test results as given in the OPERA property sets (Mansouri et al. 2018).

Details: for log10 BCF / log10 biotransformation half-life (days): fish

Structure (SMILES) | boiling point | melting point | further results
CCCCOCCOC(=O)C(C)Oc1ccc(Cl)cc1Cl (stereo unspecified) | – | – | log10 Koc (L/kg): 3
CCN(Cc1ccccc1)c1ccccc1 | 288 °C | 35 °C | –
NS(=O)(=O)C(F)(F)C(F)(F)C(F)(F)C(F)(F)C(F)(F)C(F)(F)C(F)(F)C(F)(F)F | – | – | log10 vapour pressure (mmHg): -0.606
CC(C)(C)CCO | 143 °C | -60 °C | log10 vapour pressure (mmHg): 0.389
CCCOc1ccc(O)cc1 | – | 56.5 °C | –
CC(C)(C)C(=O)OCOC(=O)[C@@H]1N2C(=O)[C@@H](N=CN3CCCCCC3)[C@H]2SC1(C)C | – | 119 °C | –
Cc1ccc(SSc2ccc(C)cc2)cc1 | – | 47.5 °C | –
O=C(NC(=O)c1c(F)cccc1F)Nc1cc(Cl)c(Oc2ncc(C(F)(F)F)cc2Cl)c(Cl)c1 | – | – | log10 Henry constant (atm·m³/mol): -11.7
O=C1CCCCC1 | 155 °C | -31 °C | log10 Henry constant (atm·m³/mol): -5.05; log10 vapour pressure (mmHg): 0.636; ready biodegradability: readily biodegradable
C[C@@H]1C[C@H]2[C@@H]3CCC4=CC(=O)C=C[C@]4(C)[C@@]3(F)[C@@H](O)C[C@]2(C)[C@H]1C(=O)CO | – | 217 °C | –
NC(=O)c1ccc(N)nc1 | – | 246 °C | –
c1ccc([C@@H]2CCCNC2)cc1 | 257 °C | 14.5 °C | –
Nc1ccc(N)c(N)c1 | 340 °C | 97.3 °C | –
O=C(NCCO[N+](=O)[O-])c1cccnc1 | – | 92.5 °C | –
CCN(CC)c1ccccc1 | 216 °C | -38.8 °C | log10 Koc (L/kg): 2.08; log10 vapour pressure (mmHg): -0.866; ready biodegradability: not readily biodegradable; log10 BCF: 2.01
COc1cc(Cl)c(Cl)cc1O | – | – | log10 vapour pressure (mmHg): -2.35; log10 BCF: 2.03; log10 biotransformation half-life (days): -0.15
CC(Br)CCCBr (stereo unspecified) | – | -34.4 °C | –
O=[N+]([O-])c1cccs1 | 224 °C | 46.5 °C | –
Cc1cccc(C)c1N(C(=O)CCl)C1CCOC1=O (stereo unspecified) | – | 146 °C | log10 vapour pressure (mmHg): -6.82
C=C(C)C(=O)OCC(F)(F)C(F)F | 124 °C | – | –
CCCCCCCCCCCCCCCCCCC1CC(=O)OC1=O (stereo unspecified) | – | – | ready biodegradability: not readily biodegradable

Structure (SMILES) | boiling point | melting point | further results
CC(CO)c1ccccc1 (stereo unspecified) | – | -13 °C | log10 vapour pressure (mmHg): -1.72
ClC1C(Br)C(Br)C(Br)C(Br)C1Br (stereo unspecified) | – | – | ready biodegradability: not readily biodegradable; log10 BCF: 2.41; log10 biotransformation half-life (days): -0.31
CCOC(=O)CCC(=O)CC1(O)C2(Cl)C3(Cl)C4(Cl)C(Cl)(Cl)C5(Cl)C3(Cl)C1(Cl)C5(Cl)C42Cl (stereo unspecified) | – | 91 °C | –
CCCCOB(OCCCC)OCCCC | 234 °C | – | log10 vapour pressure (mmHg): -0.279
Nc1cccc2cccc(S(=O)(=O)O)c12 | – | – | ready biodegradability: not readily biodegradable
Cc1ncc(CO)c(N)n1 | – | 198 °C | –
Cc1ccncc1C | 179 °C | -11 °C | log10 Henry constant (atm·m³/mol): -5.43; log10 vapour pressure (mmHg): 0.092
CC1(OO)CCC2CC1C2(C)C (stereo unspecified) | – | – | ready biodegradability: not readily biodegradable
O=[N+]([O-])c1ccc(Cl)cc1Cl | 258 °C | 34 °C | ready biodegradability: not readily biodegradable; log10 BCF: 2.07; log10 biotransformation half-life (days): 0.83
CCOC(=O)C(C)C | 110 °C | -88.2 °C | log10 vapour pressure (mmHg): 1.4
ClCC=C(Cl)Cl | 132 °C | – | –
Cc1cc(C)cc(-c2ccccc2)c1 | 274 °C | 22.5 °C | –
CN1CCN(C2=Nc3ccccc3Oc3ccc(Cl)cc32)CC1 | – | 110 °C | –
ClCCC(Cl)(Cl)Cl | 157 °C | – | –
COP(=S)(OC)Oc1ccc([N+](=O)[O-])c(C)c1 | – | 3.4 °C | log10 Henry constant (atm·m³/mol): -6.03; log10 Koc (L/kg): 2.63; log10 vapour pressure (mmHg): -4.27; ready biodegradability: readily biodegradable; log10 BCF: 1.95; log10 biotransformation half-life (days): 0.03
Cc1cc(C)c2ccccc2c1 | – | – | log10 biotransformation half-life (days): 0.51
OCc1ccc(F)cc1 | 210 °C | 23 °C | –
Fc1cccc(F)n1 | 125 °C | – | –
O=C1NC(=O)C2(CCc3ccccc3C2)N1 (stereo unspecified) | – | 268 °C | –
CC/C=C\C(C)(C)C | – | -137 °C | –
CCCCCCCCCCCCCCCc1cccc(O)c1 | – | 53.5 °C | ready biodegradability: readily biodegradable

Structure (SMILES) | boiling point | melting point | further results
Cc1ccnc(C)c1 | 158 °C | -64 °C | log10 Henry constant (atm·m³/mol): -5.17; log10 vapour pressure (mmHg): 0.5; ready biodegradability: readily biodegradable
C=CCCCl | 75 °C | – | –
N=C(N)c1ccc(N)cc1 | – | 182 °C | –
CCCC(CC)C1(CC)C(=O)NC(=O)NC1=O (stereo unspecified) | – | 122 °C | –
O=c1[nH]c2ccccc2n1CCCN1CCC(n2c(=O)[nH]c3cc(Cl)ccc32)CC1 | – | 242 °C | –
O=[N+]([O-])c1c(Cl)cc(Cl)cc1Cl | – | 72 °C | ready biodegradability: not readily biodegradable; log10 BCF: 2.47; log10 biotransformation half-life (days): 0.71
ClCc1ccccc1 | 179 °C | -45 °C | log10 vapour pressure (mmHg): 0.0899; ready biodegradability: readily biodegradable
CC(=O)C1CCCC1 | 158 °C | – | –
CCN(CC)CCOC(=O)[C@@H]1N2C(=O)[C@@H](NC(=O)Cc3ccccc3)[C@H]2SC1(C)C.I | – | 178 °C | –
O=C(O)COc1ccc2ccccc2c1 | – | 156 °C | –
O=S(=O)(O)CCN1CCN(CCS(=O)(=O)O)CC1 | – | – | ready biodegradability: not readily biodegradable
CC(=O)c1c(F)c(F)c(F)c(F)c1F | – | 130 °C | –
CNC(C)=O | 205 °C | 28 °C | log10 vapour pressure (mmHg): -0.356; ready biodegradability: readily biodegradable
COP(=O)(OC)Oc1ccc([N+](=O)[O-])c(C)c1 | – | – | log10 BCF: 0.44; log10 biotransformation half-life (days): 0.01
Brc1c2ccccc2c(Br)c2ccccc12 | – | 226 °C | –
CN(C)C(C)(C)CO | 160 °C | 19 °C | –
CCOC(=O)c1ccccc1[N+](=O)[O-] | 275 °C | 30 °C | –
O=C1C=C(Nc2ccccc2)C(=O)c2ccccc21 | – | 193 °C | –
CC(C)OC(=O)[C@H](O)[C@@H](O)C(=O)OC(C)C | 275 °C | – | –
OCC(F)(F)C(F)(F)C(F)(F)C(F)(F)C(F)(F)C(F)(F)C(F)(F)C(F)F | – | 56 °C | –
NC(=O)OCCCl | – | 75.5 °C | –

Structure (SMILES) | boiling point | melting point | further results
CCC(C)COC(C)=O (stereo unspecified) | 140 °C | – | –
C[C@@H]1CC[C@@]2(OC1)O[C@H]1C[C@H]3[C@@H]4CC[C@H]5C[C@@H](O)CC[C@]5(C)[C@H]4CC[C@]3(C)[C@H]1[C@@H]2C | – | 197 °C | –
CC(C)(O)C(Cl)(Cl)Cl | 167 °C | 97 °C | ready biodegradability: not readily biodegradable; log10 BCF: 0.23
Cc1cc(Cl)n(C)n1 | 158 °C | – | –
CCCCCCC(=O)OCCC | 208 °C | -63.5 °C | –
N#Cc1c2ccccc2cc2ccccc12 | – | 175 °C | –
CC(=O)O[C@H]1[C@H]2O[C@]23[C@@H]2CC[C@]4(O)C[C@@H](O)CC[C@]4(C)[C@H]2CC[C@]3(C)[C@H]1c1ccc(=O)oc1 | – | 260 °C | –
CCCCCC(C)OC(=O)COc1ccc(Cl)c2cccnc12 (stereo unspecified) | – | 69.4 °C | log10 vapour pressure (mmHg): -7.4
CCCCCCCCCCC(C)O (stereo unspecified) | 252 °C | 19 °C | –
CCCCN(CCCC)N=O | – | – | log10 vapour pressure (mmHg): -1.33
CC(C)CN | 68.5 °C | -85 °C | log10 vapour pressure (mmHg): 2.14; ready biodegradability: readily biodegradable
c1cnoc1 | 95 °C | – | log10 vapour pressure (mmHg): 1.66
Cc1ccc(C(=O)COc2c(C(=O)c3ccc(Cl)c(C)c3Cl)c(C)nn2C)cc1 | – | 133 °C | log10 vapour pressure (mmHg): -7.01
C=CCc1ccccc1O | 220 °C | -6 °C | ready biodegradability: readily biodegradable
Oc1ccc(Cl)cc1 | 220 °C | 42.7 °C | log10 vapour pressure (mmHg): -1.05; ready biodegradability: not readily biodegradable; log10 BCF: 1.48; log10 biotransformation half-life (days): -0.41
FC(F)(F)C(F)(F)N(C(F)(F)C(F)(F)F)C(F)(F)C(F)(F)F | 70.3 °C | -110 °C | –
OCc1c(Cl)cccc1Cl | – | 98 °C | log10 BCF: 0.47; log10 biotransformation half-life (days): -1.37
CC=CC(C)C | 58.8 °C | -130 °C | –
CCOC(=O)COc1cc(Cl)c(Cl)cc1Cl | – | 64 °C | –
CN(Cc1cc(Br)cc(Br)c1N)C1CCCCC1 | – | 238 °C | –
